Measured values published in the supplement of paper PMC10307832.

Assays:
Test in all cases: relative viability (nuclei count vs DMSO), 5 days (fraction); higher = more cells survive
DM3189 + Crizotinib = compound: C1CN(CCN1)C2=CC=C(C=C2)C3=CN4C(=C(C=N4)C5=CC=NC6=CC=CC=C56)N=C3 [DM3189] + C[C@@H](Oc1cc(-c2cnn(C3CCNCC3)c2)cnc1N)c1c(Cl)ccc(F)c1Cl [Crizotinib] (partner 1 µM)
Procedure, shortened: (§1)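 Values are medians from duplicate plates. Each reflects relative viability, defined as the nuclei count of treated wells over that of vehicle wells. Lung cancer cell lines in 1536-well plates were pin-tool dosed one day after seeding with one drug alone or with a fixed anchor-drug dose plus five library-drug doses (not always all listed) in √10 steps, then fixed, stained and imaged at 4× after 5 days.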

DM3189 + Alpelisib = compound: C1CN(CCN1)C2=CC=C(C=C2)C3=CN4C(=C(C=N4)C5=CC=NC6=CC=CC=C56)N=C3 [DM3189] + Cc1nc(NC(=O)N2CCC[C@H]2C(N)=O)sc1-c1ccnc(C(C)(C)C(F)(F)F)c1 [Alpelisib] (partner 2 µM)
Procedure, shortened: as §1

DM3189 + Bortezomib = compound: C1CN(CCN1)C2=CC=C(C=C2)C3=CN4C(=C(C=N4)C5=CC=NC6=CC=CC=C56)N=C3 [DM3189] + CC(C)C[C@H](NC(=O)[C@H](Cc1ccccc1)NC(=O)c1cnccn1)B(O)O [Bortezomib] (partner 0.002 µM)
Procedure, shortened: as §1

DM3189 + Linsitinib = compound: C1CN(CCN1)C2=CC=C(C=C2)C3=CN4C(=C(C=N4)C5=CC=NC6=CC=CC=C56)N=C3 [DM3189] + C[C@]1(O)C[C@@H](c2nc(-c3ccc4ccc(-c5ccccc5)nc4c3)c3c(N)nccn32)C1 [Linsitinib] (partner 1 µM)
Procedure, shortened: as §1

DM3189 + Pictilisib = compound: C1CN(CCN1)C2=CC=C(C=C2)C3=CN4C(=C(C=N4)C5=CC=NC6=CC=CC=C56)N=C3 [DM3189] + CS(=O)(=O)N1CCN(Cc2cc3nc(-c4cccc5[nH]ncc45)nc(N4CCOCC4)c3s2)CC1 [Pictilisib] (partner 1 µM)
Procedure, shortened: as §1

| Cell Line | relative viability (DM3189 + Crizotinib; first compound 0.08 µM) | relative viability (DM3189 + Crizotinib; first compound 0.253 µM) | relative viability (DM3189 + Crizotinib; first compound 2.53 µM) | relative viability (DM3189 + Alpelisib; first compound 0.08 µM) | relative viability (DM3189 + Alpelisib; first compound 0.253 µM) | relative viability (DM3189 + Alpelisib; first compound 2.53 µM) | relative viability (DM3189 + Bortezomib; first compound 0.08 µM) | relative viability (DM3189 + Bortezomib; first compound 0.253 µM) | relative viability (DM3189 + Bortezomib; first compound 0.8 µM) | relative viability (DM3189 + Bortezomib; first compound 2.53 µM) | relative viability (DM3189 + Linsitinib; first compound 0.08 µM) | relative viability (DM3189 + Linsitinib; first compound 0.253 µM) | relative viability (DM3189 + Linsitinib; first compound 2.53 µM) | relative viability (DM3189 + Pictilisib; first compound 0.08 µM) | relative viability (DM3189 + Pictilisib; first compound 0.253 µM) | relative viability (DM3189 + Pictilisib; first compound 2.53 µM) | relative viability (DM3189 + Crizotinib; first compound 0.8 µM) | relative viability (DM3189 + Alpelisib; first compound 0.8 µM) | relative viability (DM3189 + Linsitinib; first compound 0.8 µM) | relative viability (DM3189 + Pictilisib; first compound 0.8 µM) |
| --- | --- | --- | --- | --- | --- | --- | --- | --- | --- | --- | --- | --- | --- | --- | --- | --- | --- | --- | --- | --- |
| HCC-78 | 0.314 | 0.328 | 0.317 | 0.635 | 0.315 | 0.311 | 0.486 | 0.571 | 0.403 | 0.571 | 0.515 | 0.465 | 0.474 | 0.206 | 0.188 | 0.224 |  |  |  |  |
| HCC-366 | 0.475 | 0.574 | 0.771 | 0.417 | 0.436 | 0.423 | 1.12 | 0.99 | 0.931 | 1.06 | 0.641 | 0.538 | 0.649 | 0.209 | 0.134 | 0.137 | 0.372 | 0.167 | 0.55 | 0.116 |
| HCC-827 | 0.896 | 0.89 | 0.896 | 1.1 | 0.888 | 1.03 | 1.12 | 0.958 | 0.985 | 1.06 | 0.982 | 0.863 | 0.938 | 1.19 | 1.06 | 1.15 | 0.866 | 0.847 | 0.888 | 1.02 |
| HOP-62 | 1 | 0.866 | 0.75 | 1.29 | 1.11 | 0.911 | 1.18 | 0.927 | 0.393 | 0.58 | 1.05 | 0.901 | 1.03 | 0.86 | 0.562 | 0.836 | 0.939 | 0.773 | 0.98 | 0.572 |
| IA-LM | 0.857 |  | 1.11 | 1.24 | 0.581 | 1.31 | 1.28 | 0.935 | 1.37 | 0.956 | 0.699 | 0.682 | 0.901 | 0.355 | 0.353 | 0.566 | 1.01 | 0.963 | 0.51 | 0.426 |
| LC-2-ad | 0.419 | 0.458 | 0.378 | 0.822 | 0.76 | 0.71 | 0.975 | 0.934 | 0.943 | 1.06 | 0.858 | 0.847 | 0.855 | 0.588 | 0.563 | 0.473 | 0.382 | 0.857 | 0.819 | 0.397 |
| LCLC-97TM1 | 0.304 | 0.249 | 0.313 | 0.163 | 0.239 | 0.185 | 1.26 | 0.573 | 0.531 | 0.366 | 0.162 | 0.188 | 0.181 | 0.186 | 0.151 | 0.13 | 0.297 | 0.219 | 0.145 | 0.159 |
| LCLC-103H | 1.01 | 1.01 | 1.05 | 0.994 | 0.979 | 0.975 | 1.14 | 0.939 | 0.955 | 1.07 | 1.1 | 1.07 | 1.17 | 0.737 | 0.618 | 0.622 | 0.963 | 0.912 | 1.05 | 0.558 |
| LK-2 | 0.234 | 0.241 | 0.214 | 1.05 | 0.6 | 0.564 |  |  |  |  | 0.406 | 0.321 | 0.189 | 0.378 | 0.278 | 0.306 | 0.22 | 0.445 | 0.447 | 0.262 |
| LOU-NH91 | 0.754 | 0.709 | 0.727 | 0.765 | 0.702 | 0.683 | 0.487 | 0.529 | 0.463 | 0.443 | 0.901 | 0.956 | 0.923 | 0.534 | 0.517 | 0.519 | 0.718 | 0.668 | 0.802 | 0.477 |
| LU99A | 0.573 | 0.527 | 0.509 | 0.468 | 0.422 | 0.384 | 1.23 | 1.01 |  | 1.04 | 0.49 | 0.49 | 0.445 | 0.32 | 0.263 | 0.316 |  |  |  |  |
| NCI-H358 | 0.516 | 0.56 | 0.509 | 0.851 | 0.83 | 0.492 |  |  |  |  | 0.766 | 0.646 | 0.584 | 0.374 | 0.294 | 0.322 | 0.504 | 0.779 | 0.71 | 0.327 |
| NCI-H1395 |  |  |  | 0.927 | 0.871 | 1.34 |  |  |  |  | 0.979 | 1.05 | 1.03 | 0.625 | 0.618 | 0.562 |  | 1.04 | 0.695 | 0.459 |
| NCI-H1650 | 0.896 | 0.851 | 0.717 |  |  |  | 0.248 | 0.163 | 0.228 | 0.189 |  |  |  | 0.773 | 0.582 | 0.477 | 1.15 |  |  | 0.526 |
| NCI-H1793 |  |  |  | 0.758 | 0.877 | 1.16 |  |  |  |  | 1.09 | 0.997 | 1.21 | 0.311 | 0.306 | 0.31 |  | 0.982 | 0.937 | 0.281 |
| NCI-H1944 | 1.25 | 1 | 1.22 | 0.884 | 0.817 | 0.806 |  |  |  |  | 1.26 | 1.19 | 1.21 | 0.405 | 0.336 | 0.389 |  |  |  |  |
| NCI-H2170 | 1.31 | 1.27 | 1.09 | 0.96 | 0.854 | 0.641 |  |  |  |  |  |  |  | 0.308 | 0.301 | 0.291 | 1.24 | 0.734 |  | 0.288 |
| SK-MES-1 | 1.05 | 0.885 | 0.918 | 0.937 | 0.873 | 0.782 |  |  |  |  | 1.11 | 0.981 | 0.944 | 0.305 | 0.3 | 0.319 | 0.69 | 0.738 | 0.97 | 0.289 |
